The source of these data is PMC8724172, “The effect of potent CYP2D6 inhibition on the pharmacokinetics and safety of deutetrabenazine in healthy volunteers” (European Journal of Clinical Pharmacology, 2021).

Each structure is given as a SMILES string.

The conditions of data set [1]: cited from earlier work.
A short description of data set [2]: Open-label sequential drug-drug interaction study: plasma pharmacokinetics of deutetrabenazine and its metabolites without and with steady-state paroxetine. The following applies: for % Ratio of LS means (90% CI) (day 11)/(day 1), AUC0−t / % Ratio of LS means (90% CI) (day 11)/(day 1), AUC0−∞ / % Ratio of LS means (90% CI) (day 11)/(day 1), Cmax: deutetrabenazine + paroxetine vs deutetrabenazine alone. From the text: This was an open-label sequential drug-drug interaction study in 24 healthy adult subjects who were CYP2D6 extensive metabolizers (EM) or CYP2D6 intermediate metabolizers (IM); Supplemental Table S1 provides the genotypes and phenotypes of the subjects.
Subjects checked into the clinic on day 1 and were confined through day 14. […] Those who met inclusion/exclusion criteria received a single dose of deutetrabenazine on day 1 followed by a 72-h washout. Subjects then received paroxetine on days 4 to 12 to achieve steady-state plasma concentrations of paroxetine by day 11. On day 11, another single dose of deutetrabenazine was administered. Triplicate 12-lead digital electrocardiograms (ECGs) were collected predose and for 10 h following deutetrabenazine dosing on day 1, and for 10 h on day 11, following paroxetine administration on day 10. Blood samples for measurement of plasma concentrations of deutetrabenazine and its metabolites were obtained on days 1 and 11 (predose, 1, 2, 2.5, 3, 3.5, 4, 4.5, 5, 6, 7, 8, 10, 12, and 16 h), days 2 and 12, at 24 and 36 h, days 3 and 13, at 48 and 60 h and days 4 and 14, at 72 h. Paroxetine trough levels were obtained pre-dose on days 9, 10, 11, and 12, and on day 13 at 24 h post the final paroxetine dose on day 12. Blood and urine samples were collected for clinical laboratory testing (hematology, serum chemistries, and urinalysis) at admission and after at least 10 h fasting and at study completion on day 14 or upon early withdrawal.
All participants received the following treatments, deutetrabenazine 22.5-mg oral dose as one 15-mg tablet + one 7.5-mg tablet on days 1 and 11 and one paroxetine 20 mg (Cadila Healthcare Ltd.) oral tablet on days 4 through 12. The deutetrabenazine 22.5-mg dose was administered with 237 mL of water in the morning approximately 30 min after a standardized breakfast meal with moderate fat content (35%). No food was allowed for at least 4 h postdose, and subjects were asked to remain upright for at least 4 h postdose, unless medically necessary.
Paroxetine 20 mg was administered in the morning with 237 mL water for 9 days (days 4 to 12) to ensure steady-state levels. On days 4 to 10 and 12, the paroxetine dose was administered in a fed state 30 min after breakfast. On day 11, as paroxetine can be administered without regard to food, subjects took the paroxetine dose under fasting conditions (at least 1 h prior to breakfast and 1.5 h prior to deutetrabenazine administration) following an overnight fast of at least 10 h. Subjects were asked to remain upright for at least 1 h after the paroxetine dose, unless medically necessary.
Validated liquid chromatography/tandem mass spectrometry methods were applied to assess plasma concentrations of paroxetine, deutetrabenazine, α- and β-HTBZ metabolites, and the O-desmethyl metabolites of α- and β-HTBZ. This was performed on a Sciex API 4000 instrument, equipped with a Turbo Ion Spray ion source operated in the positive ion mode and interfaced to a Shimadzu HPLC system fitted with a Waters XBridge C18 reverse phase column (3.5 µm; 50 × 2.1 mm) for paroxetine, deutetrabenazine, α-HTBZ and β-HTBZ or a Phenomenex Kinetex column (2.6 µm; 100 × 2.1 mm) for the O-desmethyl metabolites. The validated assay ranges were as follows: paroxetine 0.500 to 50.0 ng/mL, deutetrabenazine 0.100 to 10.0 ng/mL, deuterated α- and β-HTBZ 0.500 to 100 ng/mL, and 9-O- and 10-O-desmethyl metabolites of α-HTBZ and β-HTBZ 0.5 to 50.0 ng/mL. The methods were developed and validated by CPR Pharma Services, Pty, Ltd Australia, as described earlier.
Plasma concentrations, below the limit of quantitation (BLQ) of the assay, were designated a value of zero for initial and time points occurring at the end of the profile. For sampling time points between two quantifiable concentrations, plasma concentrations BLQ followed by a measurable concentration were set to the limit of quantitation of the assay.

The mark [3] stands for this setting: Subjects with EM phenotype (n = 15).
Setting [4] is: Subjects with IM phenotype (n = 8).
[5] abbreviates: population of 15 EM and 8 IM, deutetrabenazine 22.5 mg, steady-state paroxetine 20 mg daily vs alone.

With `COc1cc2c(cc1OC)[C@@H]1C[C@H](O)[C@@H](CC(C)C)CN1CC2` [α-HTBZ], the “Increase in exposure with paroxetine” value in data set [1] (after tetrabenazine administration) is “threefold”. Besides, the “Increase of Cmax with paroxetine” value in data set [1] (paroxetine administered with tetrabenazine) is 1.3 fold. Moreover, in data set [2] (All subjects (n = 23)), the “% Ratio of LS means (90% CI) (day 11)/(day 1), AUC0−t” value (“% Ratio of LS means (90% CI) … AUC0−t” for short) is reported as 163.3 (148.3–179.8) %; the “% Ratio of LS means (90% CI) (day 11)/(day 1), AUC0−∞” value (from here on “% Ratio of LS means (90% CI) … AUC0−∞”) was 169.8 (153.8–187.5) %; the “% Ratio of LS means (90% CI) (day 11)/(day 1), Cmax” value (from here on “% Ratio of LS means (90% CI) … Cmax”) is 106.3 (90.0–125.4) %. In addition, in data set [2] (setting [3]), the “% Ratio of LS means (90% CI) … AUC0−t” value is 181.6 (162.4–302.0) %; the “% Ratio of LS means (90% CI) … AUC0−∞” value was 185.0 (165.8–206.4) %; the “% Ratio of LS means (90% CI) … Cmax” value is on record as 119.9 (108.1–132.9) %. In data set [2] (setting [4]), the “% Ratio of LS means (90% CI) … AUC0−t” value is given as 192.2 (162.9–226.8) %; the “% Ratio of LS means (90% CI) … AUC0−∞” value was 193.6 (164.4–228.0) %; the “% Ratio of LS means (90% CI) … Cmax” value is listed as 127.8 (111.8–146.1) %. Besides, the “Increase of half-life (t1/2) in presence of paroxetine” value in data set [2] (deutetrabenazine 22.5 mg, steady-state paroxetine vs alone) amounted to 1.5 fold. For the same molecule, the Cmax in data set [2] (human, in vivo) was 35.8 (21) ng/mL. In data set [2] (human, in vivo, im), the “AUC0–∞” value is 546 (22) ng × h/mL, the Cmax was 40.5 (22) ng/mL, the Tmax is on record as 4.0 (2.0–7.0) h and the t1/2 was 13.0 (23) h. In data set [2] (human, in vivo, po, 22.5 mg), the Cmax was 37.4 (22) ng/mL. In data set [2] (setting [5]), the “Increase of AUC0–∞ in presence of paroxetine” value came to 1.8 fold and the “Increase of Cmax in presence of paroxetine” value is 1.2 fold.
